According to patent US11136329B2, “JAK inhibitors” (Vimalan Biosciences, Inc., priority 2019, dated 2021):

Legend:
Format in all cases: biochemical
TYK2 = TYK2 (Homo sapiens (Human), UniProt P29597); assay: JAK/TYK2 assay (Kinase Glo luminescence), TYK2; settings: 9 nM enzyme, 2 uM ATP, 30 uM IRS-1, 1 hr
Description: (§1) 10 mM test compound stock or 1 mM control compound stock (tofocitinib, ruxolitinib or staurosporine) in DMSO was diluted to 0.4 mM in DMSO. A 3-fold series dilution was then performed in DMSO to generate 10 different compound concentrations. The assay was carried out in 384-well white plate. 0.5 uL of 40× compound DMSO solution at different concentrations was mixed with 10 uL 2× enzyme prepared in reaction buffer (20 mM HEPES, 10 mM MgCl2, 0.01% Tween, 1 mM DTT, pH 7.5). 10 uL 2× substrate mixture prepared in reaction buffer was then added to start the reaction. A short spin was done to settle down all solutions to the bottom of the plate. Final concentrations of test compound in the reaction mixture were 10000, 3333, 1111, 370, 123, 41.2, 13.7, 4.57, 1.52and 0.51 nM. Concentrations of control compound were ten times less. Enzymatic reaction was conducted at 25° C. for 1-2 hours. 10 uL of Kinase Glo Reagents was added to stop the reaction and generate the luminescent signal which was measured using Envision. Luminescence signal was inversely related to kinase activity. […] The mixture without any compound was the positive control.

JAK1 = JAK1 (Homo sapiens (Human), UniProt P23458); assay: JAK/TYK2 assay (Kinase Glo luminescence), JAK1; settings: 7.5 nM enzyme, 2 uM ATP, 30 uM IRS-1, 1 hr
Sequence of JAK1 (P23458 whole entry, species assumed): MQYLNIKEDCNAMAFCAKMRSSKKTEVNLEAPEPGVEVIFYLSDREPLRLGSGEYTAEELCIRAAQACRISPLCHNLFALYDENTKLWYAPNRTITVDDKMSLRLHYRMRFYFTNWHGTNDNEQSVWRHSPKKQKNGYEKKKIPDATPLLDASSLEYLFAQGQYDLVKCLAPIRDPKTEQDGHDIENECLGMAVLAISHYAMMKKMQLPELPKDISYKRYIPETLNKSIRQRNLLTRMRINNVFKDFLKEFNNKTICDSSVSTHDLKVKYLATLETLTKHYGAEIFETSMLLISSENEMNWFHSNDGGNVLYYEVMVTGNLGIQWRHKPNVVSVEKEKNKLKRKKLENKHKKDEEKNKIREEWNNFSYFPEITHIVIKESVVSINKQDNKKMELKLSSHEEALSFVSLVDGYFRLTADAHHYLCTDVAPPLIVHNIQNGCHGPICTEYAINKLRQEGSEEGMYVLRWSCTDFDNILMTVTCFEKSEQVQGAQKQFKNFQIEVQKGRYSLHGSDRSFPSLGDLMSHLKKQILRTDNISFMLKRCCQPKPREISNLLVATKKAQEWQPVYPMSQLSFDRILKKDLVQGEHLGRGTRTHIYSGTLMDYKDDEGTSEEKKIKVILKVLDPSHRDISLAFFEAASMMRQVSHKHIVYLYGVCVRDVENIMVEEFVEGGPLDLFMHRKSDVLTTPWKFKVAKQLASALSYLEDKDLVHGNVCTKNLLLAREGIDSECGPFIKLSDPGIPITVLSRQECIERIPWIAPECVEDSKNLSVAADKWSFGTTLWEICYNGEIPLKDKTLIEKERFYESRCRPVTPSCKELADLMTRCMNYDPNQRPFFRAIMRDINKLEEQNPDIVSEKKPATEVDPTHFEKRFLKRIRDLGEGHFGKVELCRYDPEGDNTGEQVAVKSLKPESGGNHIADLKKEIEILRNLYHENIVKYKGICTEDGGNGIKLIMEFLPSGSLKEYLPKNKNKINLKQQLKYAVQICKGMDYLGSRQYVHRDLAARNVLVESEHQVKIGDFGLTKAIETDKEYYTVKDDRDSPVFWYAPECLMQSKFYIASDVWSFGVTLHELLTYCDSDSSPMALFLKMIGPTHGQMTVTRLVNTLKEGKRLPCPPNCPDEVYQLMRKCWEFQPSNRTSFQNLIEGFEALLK
Description: as §1

JAK3 = JAK3 (Homo sapiens (Human), UniProt P52333); assay: JAK/TYK2 assay (Kinase Glo luminescence), JAK3; settings: 1.5 nM enzyme, 2 uM ATP, 4 uM pEY, 1 hr
Sequence of JAK3 (P52333 whole entry, species assumed): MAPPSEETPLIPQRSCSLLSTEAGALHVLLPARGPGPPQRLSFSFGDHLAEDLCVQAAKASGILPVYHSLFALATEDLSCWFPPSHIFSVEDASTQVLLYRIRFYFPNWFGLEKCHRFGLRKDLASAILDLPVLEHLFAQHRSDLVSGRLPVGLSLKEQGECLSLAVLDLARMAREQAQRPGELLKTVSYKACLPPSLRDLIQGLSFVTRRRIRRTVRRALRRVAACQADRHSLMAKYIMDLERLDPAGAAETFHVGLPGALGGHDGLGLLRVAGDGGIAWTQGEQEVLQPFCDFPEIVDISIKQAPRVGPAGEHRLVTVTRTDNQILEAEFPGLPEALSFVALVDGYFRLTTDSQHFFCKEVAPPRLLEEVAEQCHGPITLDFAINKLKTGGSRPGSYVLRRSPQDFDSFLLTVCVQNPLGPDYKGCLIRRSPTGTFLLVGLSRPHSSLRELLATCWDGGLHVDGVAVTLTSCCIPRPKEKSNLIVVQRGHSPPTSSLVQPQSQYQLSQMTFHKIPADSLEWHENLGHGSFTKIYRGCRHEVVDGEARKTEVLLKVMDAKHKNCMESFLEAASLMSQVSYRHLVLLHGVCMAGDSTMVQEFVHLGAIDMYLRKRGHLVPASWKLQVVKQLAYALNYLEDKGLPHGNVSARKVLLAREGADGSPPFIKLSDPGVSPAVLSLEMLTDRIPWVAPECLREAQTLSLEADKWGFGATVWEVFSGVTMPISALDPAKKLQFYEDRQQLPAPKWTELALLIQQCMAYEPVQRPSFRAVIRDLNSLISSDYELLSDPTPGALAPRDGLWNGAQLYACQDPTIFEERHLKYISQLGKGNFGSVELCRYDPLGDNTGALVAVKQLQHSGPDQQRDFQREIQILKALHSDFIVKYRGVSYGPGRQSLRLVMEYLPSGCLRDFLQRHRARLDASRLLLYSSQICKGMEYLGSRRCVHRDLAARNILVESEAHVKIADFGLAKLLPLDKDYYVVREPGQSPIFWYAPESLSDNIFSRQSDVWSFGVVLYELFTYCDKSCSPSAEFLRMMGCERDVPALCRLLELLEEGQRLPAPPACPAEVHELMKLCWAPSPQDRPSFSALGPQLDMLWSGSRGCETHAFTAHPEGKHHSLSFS
Description: as §1

JAK2 = JAK2 (Homo sapiens (Human), UniProt O60674); assay: JAK/TYK2 assay (Kinase Glo luminescence), JAK2; settings: 0.8 nM enzyme, 2 uM ATP, 4 uM pEY, 1 hr
Sequence of JAK2 (O60674 whole entry, species assumed): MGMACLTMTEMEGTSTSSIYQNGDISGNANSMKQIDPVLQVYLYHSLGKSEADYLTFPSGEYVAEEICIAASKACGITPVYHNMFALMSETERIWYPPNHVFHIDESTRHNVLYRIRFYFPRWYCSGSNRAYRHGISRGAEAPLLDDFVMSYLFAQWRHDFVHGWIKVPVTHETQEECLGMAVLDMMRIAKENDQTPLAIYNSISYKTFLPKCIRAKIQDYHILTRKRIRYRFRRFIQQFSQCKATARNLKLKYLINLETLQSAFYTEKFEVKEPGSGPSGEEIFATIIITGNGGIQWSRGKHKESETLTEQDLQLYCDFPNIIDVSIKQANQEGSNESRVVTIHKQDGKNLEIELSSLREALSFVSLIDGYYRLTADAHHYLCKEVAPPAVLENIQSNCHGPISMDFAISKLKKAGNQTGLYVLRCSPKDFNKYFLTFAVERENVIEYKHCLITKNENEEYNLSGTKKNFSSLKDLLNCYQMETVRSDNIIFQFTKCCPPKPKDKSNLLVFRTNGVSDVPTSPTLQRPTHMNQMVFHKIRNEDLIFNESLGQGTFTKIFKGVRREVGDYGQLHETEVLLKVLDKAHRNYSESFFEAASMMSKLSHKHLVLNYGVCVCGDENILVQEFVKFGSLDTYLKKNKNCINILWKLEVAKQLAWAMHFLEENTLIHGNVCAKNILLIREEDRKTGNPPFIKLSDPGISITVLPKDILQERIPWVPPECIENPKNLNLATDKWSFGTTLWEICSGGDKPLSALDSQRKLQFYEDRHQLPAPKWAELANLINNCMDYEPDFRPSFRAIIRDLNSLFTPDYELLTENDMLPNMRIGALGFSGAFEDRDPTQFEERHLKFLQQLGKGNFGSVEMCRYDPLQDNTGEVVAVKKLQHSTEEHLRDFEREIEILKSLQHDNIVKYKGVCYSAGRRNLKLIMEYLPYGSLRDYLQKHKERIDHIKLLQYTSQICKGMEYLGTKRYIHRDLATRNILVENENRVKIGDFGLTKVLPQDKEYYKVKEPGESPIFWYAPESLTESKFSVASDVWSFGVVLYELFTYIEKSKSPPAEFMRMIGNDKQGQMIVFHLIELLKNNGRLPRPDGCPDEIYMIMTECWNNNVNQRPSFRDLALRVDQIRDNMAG
Description: as §1

Sequence of TYK2 (P29597 whole entry, species assumed): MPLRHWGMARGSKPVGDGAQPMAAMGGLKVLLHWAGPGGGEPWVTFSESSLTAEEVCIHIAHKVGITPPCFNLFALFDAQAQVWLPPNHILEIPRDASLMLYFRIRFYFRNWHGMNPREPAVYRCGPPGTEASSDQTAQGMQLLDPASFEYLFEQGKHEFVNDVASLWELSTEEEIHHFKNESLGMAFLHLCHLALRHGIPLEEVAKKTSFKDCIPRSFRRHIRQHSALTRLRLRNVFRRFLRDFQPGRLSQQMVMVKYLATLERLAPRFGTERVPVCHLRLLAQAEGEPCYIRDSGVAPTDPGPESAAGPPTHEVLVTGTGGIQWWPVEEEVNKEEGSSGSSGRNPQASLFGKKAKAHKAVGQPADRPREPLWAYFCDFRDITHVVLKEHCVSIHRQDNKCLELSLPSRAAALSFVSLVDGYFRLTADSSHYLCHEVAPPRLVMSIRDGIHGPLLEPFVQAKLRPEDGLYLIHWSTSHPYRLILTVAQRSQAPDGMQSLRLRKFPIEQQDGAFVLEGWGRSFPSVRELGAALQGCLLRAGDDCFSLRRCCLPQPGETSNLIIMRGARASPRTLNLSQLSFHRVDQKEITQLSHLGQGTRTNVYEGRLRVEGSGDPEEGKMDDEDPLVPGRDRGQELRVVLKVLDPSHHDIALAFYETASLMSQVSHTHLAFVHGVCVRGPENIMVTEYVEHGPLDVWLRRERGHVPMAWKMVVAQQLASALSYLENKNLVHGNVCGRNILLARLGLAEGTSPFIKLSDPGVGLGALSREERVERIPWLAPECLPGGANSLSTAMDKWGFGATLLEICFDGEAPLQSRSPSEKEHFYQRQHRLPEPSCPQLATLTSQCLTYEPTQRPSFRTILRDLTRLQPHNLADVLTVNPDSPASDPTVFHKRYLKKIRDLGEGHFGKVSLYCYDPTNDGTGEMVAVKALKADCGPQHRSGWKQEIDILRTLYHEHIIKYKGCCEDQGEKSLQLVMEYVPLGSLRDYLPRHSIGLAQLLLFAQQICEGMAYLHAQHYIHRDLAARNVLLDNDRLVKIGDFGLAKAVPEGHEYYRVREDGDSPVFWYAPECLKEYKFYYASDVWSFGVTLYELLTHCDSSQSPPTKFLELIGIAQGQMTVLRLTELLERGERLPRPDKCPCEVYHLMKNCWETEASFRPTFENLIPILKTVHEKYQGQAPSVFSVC

Row | IC50 (TYK2) [µM] | IC50 (JAK1) [µM] | IC50 (JAK3) [µM] | IC50 (JAK2) [µM] | SMILES
1 | < 0.1 | < 0.1 | < 0.1 | < 0.1 | CCC(Cn1ccc2cnc(Nc3cnn(CC(=O)O[C@H](C)CO)c3)nc21)C(C)C (stereo partly drawn) [Compound 106, (R)-1-hydroxypropan-2-yl 2-(4-((7-(2-ethyl-3-methylbutyl)-7H-pyrrolo[2,3-d]pyrimidin-2-yl)amino)-1H-pyrazol-1-yl)acetate]
2 | < 0.1 | < 0.1 | < 0.1 | < 0.1 | CCC(Cn1ccc2cnc(Nc3cnn(CC(=O)OC[C@H](C)O)c3)nc21)C(C)C (stereo partly drawn) [Compound 112, (S)-2-hydroxypropyl 2-(4-((7-(2-ethyl-3-methylbutyl)-7H-pyrrolo[2,3-d]pyrimidin-2-yl)amino)-1H-pyrazol-1-yl)acetate]
3 | < 0.1 | < 0.1 | < 0.1 | < 0.1 | CC[C@H](Cn1ccc2cnc(Nc3cnn(CC(=O)O)c3)nc21)C(C)C [Compound 104, (S)-2-(4-((7-(2-ethyl-3-methylbutyl)-7H-pyrroIo[2,3-d]pyrimidin-2-yl)amino)-1H-pyrazol-1-yl)acetic acid]
4 | < 0.1 | < 0.1 | < 0.1 | < 0.1 | CCC[C@H](Cn1ccc2cnc(Nc3cnn(CC(=O)OC(C)C)c3)nc21)C(C)C [Compound 100, isopropyl (S)-2-(4-((7-(2-isopropylpentyl)-7H-pyrrolo[2,3-d]pyrimidin-2-yl)amino)-1H-pyrazol-1-yl)acetate]
5 | < 0.1 | < 0.1 | < 0.1 | < 0.1 | CC(C)C(Cn1ccc2cnc(Nc3cnn(CC(=O)O)c3)nc21)C(C)C [Compound 87, 2-(4-((7-(2-isopropyl-3-methylbutyl)-7H-pyrrolo[2,3-d]pyrimidin-2-yl)amino)-1H-pyrazol-1-yl)acetic acid]
6 | < 0.1 | < 0.1 | < 0.1 | < 0.1 | CCC(Cn1ccc2cnc(Nc3cnn(CC(=O)O)c3)nc21)C(C)C (stereo not shown) [Compound 29, 2-(4-((7-(2-ethyl-3-methylbutyl)-7H-pyrrolo[2,3-d]pyrimidin-2-yl)amino)-1H-pyrazol-1-yl)acetic acid]
7 | < 0.1 | < 0.1 | < 0.1 | < 0.1 | CC[C@H](Cn1ccc2cnc(Nc3cnn(CCC(=O)O)c3)nc21)C(C)C [Compound 115, (S)-3-(4-((7-(2-ethyl-3-methylbutyl)-7H-pyrrolo[2,3-d]pyrimidin-2-yl)amino)-1H-pyrazol-1-yl)propanoic acid]
8 | < 0.1 | < 0.1 | < 0.1 | < 0.1 | CC[C@@H](Cn1ccc2cnc(Nc3cnn(CC(=O)OC(C)C)c3)nc21)C(C)C [Compound 132, isopropyl (R)-2-(4-((7-(2-ethyl-3-methylbutyl)-7H-pyrrolo[2,3-d]pyrimidin-2-yl)amino)-1H-pyrazol-1-yl)acetate]

The remaining lines, values behind:

Row | SMILES | IC50 (TYK2) [µM] | IC50 (JAK1) [µM] | IC50 (JAK3) [µM] | IC50 (JAK2) [µM]
9 | O=C(O)CCn1cc(Nc2ncc3ccn(C[C@H]4CC[C@H](O)CC4)c3n2)cn1 [Compound 117, 3-(4-((7-(((1r,4r)-4-hydroxycyclohexyl)methyl)-7H-pyrrolo[2,3-d]pyrimidin-2-yl)amino)-1H-pyrazol-1-yl)propanoic acid] | < 0.1 | < 0.1 | < 0.1 | < 0.1
10 | CCOC(=O)Cn1cc(Nc2ncc3ccn(CC(CC)CO)c3n2)cn1 (stereo not shown) [Compound 65, ethyl 2-(4-((7-(2-(hydroxymethyl)butyl)-7H-pyrrolo[2,3-d]pyrimidin-2-yl)amino)-1H-pyrazol-1-yl)acetate] | < 0.1 | < 0.1 | < 0.1 | < 0.1
11 | CCOC(=O)Cn1cc(Nc2ncc3ccn(Cc4ccsc4)c3n2)cn1 [Compound 10, ethyl 2-(4-((7-(thiophen-3-ylmethyl)-7H-pyrrolo[2,3-d]pyrimidin-2-yl)amino)-1H-pyrazol-1-yl)acetate] | < 0.1 | < 0.1 | < 0.1 | < 0.1
12 | CCOC(=O)Cn1cc(Nc2ncc3ccn(C[C@H]4CC[C@H](N)CC4)c3n2)cn1 [Compound 127, ethyl 2-(4-((7-(((1r,4r)-4-aminocyclohexyl)methyl)-7H-pyrrolo[2,3-d]pyrimidin-2-yl)amino)-1H-pyrazol-1-yl)acetate] | < 0.1 | < 0.1 | < 0.1 | < 0.1
13 | C=CC[C@H](Cn1ccc2cnc(Nc3cnn(CC(=O)OC(C)C)c3)nc21)C(C)C [Compound 102, isopropyl (S)-2-(4-((7-(2-isopropylpent-4-en-1-yl)-7H-pyrrolo[2,3-d]pyrimidin-2-yl)amino)-1H-pyrazol-1-yl)acetate] | < 0.1 | < 0.1 | < 0.1 | < 0.1
14 | CCOC(=O)Cn1cc(Nc2ncc3ccn(CC4CCCC4)c3n2)cn1 [Compound 17, ethyl 2-(4-((7-(cyclopentylmethyl)-7H-pyrrolo[2,3-d]pyrimidin-2-yl)amino)-1H-pyrazol-1-yl)acetate] | < 0.1 | < 0.1 | < 0.1 | < 0.1
15 | CCOC(=O)Cn1cc(Nc2ncc3ccn(C[C@H]4CCC[C@@H](OC)C4)c3n2)cn1 [Compound 130, ethyl 2-(4-((7-(((1S,3R)-3-methoxycyclohexyl)methyl)-7H-pyrrolo[2,3-d]pyrimidin-2-yl)amino)-1H-pyrazol-1-yl)acetate] | < 0.1 | < 0.1 | < 0.1 | < 0.1
16 | CN1CC[C@@H](OC(=O)Cn2cc(Nc3ncc4ccn(C[C@H]5CC[C@H](O)CC5)c4n3)cn2)C1 [Compound 146, (R)-1-methylpyrrolidin-3-yl 2-(4-((7-(((1r,4r)-4-hydroxycyclohexyl)methyl)-7H-pyrrolo[2,3-d]pyrimidin-2-yl)amino)-1H-pyrazol-1-yl)acetate] | < 0.1 | < 0.1 | < 0.1 | < 0.1
17 | CCOC(=O)Cn1cc(Nc2ncc3ccn(CC(CC)CC#N)c3n2)cn1 (stereo not shown) [Compound 70, ethyl 2-(4-((7-(2-(cyanomethyl)butyl)-7H-pyrrolo[2,3-d]pyrimidin-2-yl)amino)-1H-pyrazol-1-yl)acetate] | < 0.1 | < 0.1 | < 0.1 | < 0.1
18 | CCC(Cn1ccc2cnc(Nc3cnn(CC(=O)OC(C)C)c3)nc21)CC(F)(F)F (stereo not shown) [Compound 101, isopropyl 2-(4-((7-(2-ethyl-4,4,4-trifluorobutyl)-7H-pyrrolo[2,3-d]pyrimidin-2-yl)amino)-1H-pyrazol-1-yl)acetate] | < 0.1 | < 0.1 | < 0.1 | < 0.1
19 | CCOC(=O)Cn1cc(Nc2ncc3ccn(C[C@H]4CC[C@@H](O)CC4)c3n2)cn1 [Compound 52, ethyl 2-(4-((7-(((1s,4s)-4-hydroxycyclohexyl)methyl)-7H-pyrrolo[2,3-d]pyrimidin-2-yl)amino)-1H-pyrazol-1-yl)acetate] | < 0.1 | 0.1 to 1 | < 0.1 | < 0.1
20 | CCOC(=O)Cn1cc(Nc2ncc3ccn(C[C@H]4CC[C@H](OC)CC4)c3n2)cn1 [Compound 129, ethyl 2-(4-((7-(((1r,4r)-4-methoxycyclohexyl)methyl)-7H-pyrrolo[2,3-d]pyrimidin-2-yl)amino)-1H-pyrazol-1-yl)acetate] | < 0.1 | 0.1 to 1 | < 0.1 | < 0.1
21 | CCOC(=O)Cn1cc(Nc2ncc3ccn(CCC(C)C)c3n2)cn1 [Compound 21, ethyl 2-(4-((7-isopentyl-7H-pyrrolo[2,3-d]pyrimidin-2-yl)amino)-1H-pyrazol-1-yl)acetate] | < 0.1 | < 0.1 | < 0.1 | < 0.1
22 | CCOC(=O)C(C)(C)n1cc(Nc2ncc3ccn(CC(CC)CC)c3n2)cn1 [Compound 27, ethyl 2-(4-((7-(2-ethylbutyl)-7H-pyrrolo[2,3-d]pyrimidin-2-yl)amino)-1H-pyrazol-1-yl)-2-methylpropanoate] | < 0.1 | < 0.1 | < 0.1 | < 0.1
23 | CCOC(=O)Cn1cc(Nc2ncc3ccn(CC(CC)CC)c3n2)cn1 [Compound 8, ethyl 2-(4-((7-(2-ethylbutyl)-7H-pyrrolo[2,3-d]pyrimidin-2-yl)amino)-1H-pyrazol-1-yl)acetate] | < 0.1 | < 0.1 | < 0.1 | < 0.1
24 | CCOC(=O)Cn1cc(Nc2ncc3ccn(CC4(C)CCCCC4)c3n2)cn1 [Compound 47, ethyl 2-(4-((7-((1-methylcyclohexyl)methyl)-7H-pyrrolo[2,3-d]pyrimidin-2-yl)amino)-1H-pyrazol-1-yl)acetate] | < 0.1 | < 0.1 | < 0.1 | < 0.1
25 | CC(C)OC(=O)Cn1cc(Nc2ncc3ccn(C[C@H]4CC[C@H](O)CC4)c3n2)cn1 [Compound 122, isopropyl 2-(4-((7-(((1r,4r)-4-hydroxycyclohexyl)methyl)-7H-pyrrolo[2,3-d]pyrimidin-2-yl)amino)-1H-pyrazol-1-yl)acetate] | < 0.1 | < 0.1 | < 0.1 | < 0.1
